The values below come from patent US20140343050A1, “PRODRUGS OF D-ISOGLUTAMYL-[D/L]-TRYPTOPHAN” (APTOEX TECHNOLOGIES, INC., priority 2011, published 2014).

Bounds are passed on as bounds.

In one data set the test system is human hepatocytes. As to the kind of experiment: Biotransformation to Apo805 in human hepatocytes. The note with it: for Half-life for bioconversion to Apo805 (h), Human hepatocytes: 100 μM prodrug, pooled cryopreserved human hepatocytes.
A short description of data set [1]: Stability / bioconversion to Apo805 in human blood. The note with it: 100 μM prodrug, pooled human blood, 37° C.
Source text: (§1) HPLC analysis was done using an Agilent 1100 series HPLC system consisting of a programmable multi-channel pump, auto-injector, vacuum degasser and HP detector controlled by Agilent HPLC218 Chem Station Rev.A.09.03 software for data acquisition and analysis. A gradient method was used for the determination of all pro-drugs and their hydrolysis products including Apo805 on an Agilent Eclipse XDB, C18 column (part #963967-902, 150×4.6 mm, 3.5 μm) with the following chromatographic conditions: • Temperature: Ambient • Mobile phase: A=Aqueous phase: 10 mM Tris-HCl, 2 mM EDTA, pH 7.4 B=Organic phase: Acetonitrile • Gradient method: Time: 0 min 5% B, 25 min 50% B, 35 min 80% B, 45 min 5% B, 50 min 5% B. • Mobile phase flow rate: 1.0 mL/min • Injection volume: 50 μL • Data acquisition time: 30 min • Detection wavelength: 280 nm; 4 nm bandwidth, ref. 360 nm, • 4 nm bandwidth The chromatograms at λ=280 nm were analyzed. Peak area (mAU*s) was used for quantitation of pro-drugs, intermediates and thymodepressin (Apo805).
Blood was collected from healthy volunteers, both male and female, in Becton Dickinson ACD Vacutainer™ containing ACD solution A (22.0 g/L trisodium citrate, 8.0 g/L citric acid, 24.5 g/L dextrose). […] After 10-min incubation on ice, samples were centrifuged (16,000×g, 10 min) and the supernatants were analyzed by HPLC.
Data set [2] is described as follows: Pharmacokinetic study in rats, oral bioavailability (plasma Apo805). Format: in vivo. As to conditions: male Sprague-Dawley rats, oral 5 mg/kg, in words. The protocol: Groups of five male Sprague-Dawley rats weighing 250 to 300 g were utilized per dosing group. One day prior to dosing, venous and arterial catheters (made of 20 cm long polyurethane coiled tubing, and filled with 100 units/mL heparinized saline) were implanted into the jugular vein and carotid artery of each rat. Rats were fasted overnight prior to oral dosing and fed approximately 2 hours post-dosing. All dosing and blood sampling was performed on fully conscious rats. Tested compounds were administered either by oral gavage as solutions in water, or by intravenous injection (Apo805K1 only) as solution in 0.9% sodium chloride, final pH 7.0, at doses equivalent to 5 mg/kg (per Apo805 content). Blood (0.3 mL) was sampled from each animal from the carotid artery for up to 30 hours post-dosing, each sampling followed by an equivalent naive-blood replacement. […]
A Sciex API 365 LC/MS/MS […] equipped with Ionics EP10+ and HSID, was used, A chiral column (Supelco-Astec CHIROBIOTIC™ TAG), 100×2.1 mm, 5 μm was used at ambient temperature. […] Samples were analysed for the concentration of Apo805 (thymodepressin).
Non-compartmental analysis was performed using WinNonlin 52 software, on individual animal data. Bioavailability was calculated as a ratio of AUCINF—D after oral dosing of test compound to AUCINF—D after IV dosing of Apo805K1. […]

Procedure for human hepatocytes: LiverPool® cryopreserved human hepatocytes (pooled from 10 male donors) was obtained from Celsis In Vitro Technologies. The hepatocytes were stored in liquid nitrogen until used. Just before the assay, the hepatocytes were quickly thawed at 37° C. and centrifuged at 100×g for 10 min. The media was removed and cells were re-suspended in PBS at a density of 4×10^6 cells/mL. […] After 10, 20, 60, 120 and 240 min of incubation, the reaction was quenched by adding an equal volume of 5% (w/v) TCA. The “time 0” sample was generated by adding TCA before the test compound. After brief vortexing and 10-min incubation on ice, samples were centrifuged (16,000×g, 10 min) and the supernatants were analyzed by HPLC with UV detection.
as §1

Take `CCOC(=O)[C@@H](Cc1c[nH]c2ccccc12)NC(=O)CC[C@@H](N)C(=O)O` [Apo835, H-D-Glu(D-Trp-OEt)-OH, reference compound]: the “Half-life for bioconversion to Apo805 (h), Human hepatocytes” value in the data set on human hepatocytes was more than 2.0 h. Also, the “percent conversion to Apo805 within indicated time, Human hepatocytes” value with human hepatocytes (in 2 h) is 11%. For the same molecule, in data set [1], the “Half-life for bioconversion to Apo805 (h), Human blood” value is on record as more than 24 h. Turning to `CC(C)(C)C(=O)OCOC(=O)[C@@H](Cc1c[nH]c2ccccc12)NC(=O)CC[C@@H](N)C(=O)O` [Apo839, H-D-Glu(D-Trp-OCH2O—CO—C(CH3)3)—OH], the “oral bioavailability in rats” value in data set [2] was “show oral bioavailability”. The same measure, in the same setting: the result for `CC(OC(=O)OC1CCCCC1)OC(=O)[C@@H](Cc1c[nH]c2ccccc12)NC(=O)CC[C@@H](N)C(=O)O` (stereo partly drawn) [Apo843, H-D-Glu(D-Trp-O—CH(CH3)—O—CO—O-cyclohexyl)-OH] reads “show oral bioavailability”. With `N[C@H](CCC(=O)N[C@@H](Cc1c[nH]c2ccccc12)C(=O)O)C(=O)OCCC(F)(F)F` [Apo886], the “Half-life for bioconversion to Apo805 (h), Human hepatocytes” value in the data set with human hepatocytes was 4.6 h. In data set [1], the “Half-life for bioconversion to Apo805 (h), Human blood” value stood at 5.9 h. As for `CN(C)C(=O)COC(=O)[C@@H](Cc1c[nH]c2ccccc12)NC(=O)CC[C@@H](N)C(=O)O` [Apo893, H-D-Glu(D-Trp-O—CH2CO—N(CH3)2)—OH], the “biotransformation to thymodepressin (Apo805) in human hepatocytes” value with human hepatocytes (in words) is reported as “not readily converted to thymodepressin”.
